Measurements: patent US20230111768A1 (Razi University, priority 2021, published 2023)

Legend:
Type in all cases: cell-based
[1] = system: Human Dermal Fibroblasts (HDF) cell line; assay: MTT assay, cytotoxic effect on Human Dermal Fibroblasts (HDF) cell line; settings: after 24 hours of treatment, normal human adult cell line
Description: (§1) In this example, anti-cancer activity of benzo[4,5]imidazo[2,1-b]pyrimido[4,5-d][1,3]thiazine-2,4(3H)-dione and benzo[4,5]imidazo[2,1-b][1,3]thiazin-4-one was evaluated on A-431 cell line (an exemplary epidermoid carcinoma cell line), PC-3 cell line (an exemplary classical prostate cancer cell line), PANC-1 cell line (an exemplary pancreas ductal adenocarcinoma cell line)) by conducting an exemplary […] (MTT) assay. Cytotoxic effect of benzo[4,5]imidazo[2,1-b]pyrimido[4,5-d][1,3]thiazine-2,4(3H)-dione and benzo[4,5]imidazo[2,1-b][1,3]thiazin-4-one was also evaluated on Human Dermal Fibroblasts (HDF) cell line (an exemplary normal, human, adult cell line).
(§2) Meanwhile, the A-431, PC-3, and PANC-1 cell lines were tested by MTT assay after being cultured in DMSO with a concentration of about 1% (v/v) and Etoposide (an anti-cancer chemotherapy drug) as negative and positive controls, respectively. […] “IC50” may refer to a concentration of a compound that may inhibit cell growth and proliferation by 50%.

[2] = system: A-431 cell line; assay: MTT assay on A-431 cell line; settings: Homo sapiens, after 24 hours of treatment, epidermoid carcinoma cell line
Description: as §1, §2

[3] = system: PC-3 cell line; assay: MTT assay on PC-3 cell line; settings: Homo sapiens, after 24 hours of treatment, prostate cancer cell line
Description: as §1, §2

[4] = system: PANC-1 cell line; assay: MTT assay on PANC-1 cell line; settings: Homo sapiens, after 24 hours of treatment, pancreas ductal adenocarcinoma cell line
Description: as §1, §2

SMILES | IC50 [1] | IC50 [2] | IC50 [3] | IC50 [4]
Cc1ccc(C2=C3C(=O)N(C)C(=O)N(C)C3n3c(nc4ccccc43)S2)cc1 (centres unmarked) | > 100 µM | 25.3 µM | 31.9 µM | 24.6 µM
COc1cc([C@@H]2c3cc4c(cc3[C@@H](O[C@@H]3O[C@@H]5CO[C@@H](C)O[C@H]5[C@H](O)[C@H]3O)[C@H]3COC(=O)[C@H]23)OCO4)cc(OC)c1O [Etoposide, reference compound] | > 100 µM | 27 µM | 25.2 µM | 32.2 µM
